Source: EP0657176B1, “Composition containing a water-insoluble or slightly water-soluble compound with enhanced water-solubility” (priority 1993, dated 1995)

Experiments:
[1] = Water-solubility of acetohexamide alone or combined with β-CyD-G2-COONa or β-CyD (Example 13); format: physicochemical; settings: with β-CyD-G2-COONa or β-CyD 1:1 (molar ratio), as Example 12, powder 100 mg + water 1 ml; alone: 25 °C, 6 hours; ultraviolet spectrophotometer; read-out: solubilities of acetohexamide
Procedure: Separately, powder was obtained by the same operation except using β-CyD instead of the above β-CyD-G2-COONa. Water (1 ml) was added to each powder (100 mg) thus obtained to dissolve it. On the other hand, acetohexamide alone was added to water, and the mixture was vigorously shaken at 25 °C for 6 hours and filtered through a membrane filter of 0.22 µm. The acetohexamide in the above filtrate was determined with an ultraviolet spectrophotometer (Shimadzu Corp., UV-240).

[2] = Water-solubility of the antifungal agent alone or combined with β-CyD-G2-COONa or β-CyD (Example 4); format: physicochemical; settings: triazolone antifungal agent in water; with β-CyD-G2-COONa or β-CyD 1:2 (molar ratio), lyophilized powder; as Example 1; read-out: solubilities of the antifungal agent
Procedure: (§1) The antineoplastic agent 6-O-(N-chloroacetylcarbamoyl)fumagillol (100 mg) was dissolved in ethanol (4 ml). […] The aqueous solution was added to the ethanol solution and mixed with it with stirring. The resulting solution was lyophilized in vacuo to give powder. Water (1 ml) was added to the powder (100 mg) to obtain a homogeneous aqueous solution, i.e., a composition of the present invention.
(§2) On the other hand, the antineoplastic agent alone was added to water, and the mixture was vigorously shaken at 25 °C for 4 hours and filtered through a membrane filter of 0.22 µm.
(§3) The antineoplastic agent in the above homogeneous aqueous solution and filtrate was determined by high performance liquid chromatography (HPLC). As a result, the solubilities in Table 1 were obtained.
Likewise, lyophilized powder was obtained from the antifungal agent and β-cyclodextrin (β-CyD)(the antifungal agent : β-CyD = 1:2 (molar ratio)). […]

[3] = Water-solubility of clofibrate alone or combined with β-CyD-G2-COONa or β-CyD (Example 5); format: physicochemical; settings: in water; with β-CyD-G2-COONa or β-CyD 1:2 (molar ratio), lyophilized powder; as Example 1; read-out: solubilities of clofibrate
Procedure: as §1, §2, §3
Likewise, lyophilized powder was obtained from clofibrate and β-cyclodextrin (β-CyD) (clofibrate : β-CyD = 1:2 (molar ratio)). […]

[4] = Water-solubility of flufenamic acid alone or combined with β-CyD-G2-COONa or β-CyD (Example 7); format: physicochemical; settings: flufenamic acid about 6 mg; as Example 6 (cyclodextrin 75 mg in water 5 ml, 25°C, 8 hours)
Procedure: (§4) Sodium6-O-cyclomaltoheptaosyl-(6→1)-O-α-D-glucosyl-(4→1)-O-α-D-glucuronate (β-CyD-G2-COONa)(75 mg) was dissolved in water (5 ml).

[5] = Water-solubility of griseofulvin alone or combined with β-CyD-G2-COONa or β-CyD (Example 12, milling, spectrophotometry); format: physicochemical; settings: with β-CyD-G2-COONa or β-CyD 1:1 (molar ratio), shaken in tumbler pulverizer with a small amount of water, lyophilized, powder 100 mg + water 1 ml, alone: 25°C, 6 hours, read-out: solubilities of griseofulvin
Procedure: Water (1 ml) was added to each powder (100 mg) thus obtained to obtain an aqueous solution thereof. On the other hand, griseofulvin alone was added to water, and the mixture was vigorously shaken at 25°C for 6 hours and filtered through a membrane filter of 0.22 µm.
The griseofulvin in the above filtrate was determined by spectrophotometry (Shimadzu Corp., UV-240 spectrophotometer).

[6] = Water-solubility of indomethacin alone or combined with β-CyD-G2-COONa or β-CyD (Example 11)
Excerpt: The results are in Table 11. Table 11

[7] = Water-solubility of phenytoin alone or combined with β-CyD-G2-COONa or β-CyD (Example 9)
Procedure: as §4

[8] = Water-solubility of testosterone alone or combined with β-CyD-G2-COONa or β-CyD (Example 8)
Procedure: as §4

[9] = Water-solubility of testosterone alone or combined with α-CyD-G2-COONa or α-CyD (Example 14); format: physicochemical; settings: testosterone about 4 mg, α-CyD-G2-COONa or α-CyD 75 mg in water 5 ml, shaken at 25°C for 8 hours; ultraviolet spectrophotometer; read-out: solubilities of testosterone
Procedure: The same operations were carried out using α-cyclodextrin (α-CyD) instead of α-CyD-G2-COONa or using testosterone alone. The concentration of testosterone dissolved in the resulting filtrate was determined with an ultraviolet spectrophotometer (Shimadzu Corp., UV-240).

[10] = Water-solubility of testosterone alone or combined with β-CyD-CH2CH(OH)-COONa or β-CyD (Example 15); format: physicochemical; settings: testosterone about 4 mg, β-CyD-CH2CH(OH)-COONa or β-CyD 75 mg in water 5 ml, shaken at 25°C for 8 hours; ultraviolet spectrophotometer; read-out: solubilities of testosterone
Procedure: The same operations were carried out using β-CyD instead of β-CyD-CH2CH(OH)-COONa or using testosterone alone. The concentration of testosterone dissolved in the resulting filtrate was determined with an ultraviolet spectrophotometer (Shimadzu Corp., UV-240).

[11] = water, 8 h
Excerpt: The results are in Table 10. Table 10

CC(=O)c1ccc(S(=O)(=O)NC(=O)NC2CCCCC2)cc1 [Acetohexamide alone, acetohexamide]
solubility [1]: 28.1 µg/mL

C[C@@H](n1ncn(-c2ccc(OCC(F)(F)C(F)F)cc2)c1=O)[C@](O)(Cn1cncn1)c1ccc(F)cc1F [Antifungal agent alone, 2-[(1R,2R)-2-(2,4-difluorophenyl)-2-hydroxy-1-methyl-3-(1H-1,2,4-triazol-1-yl)propyl]-4-[4-(2,2,3,3-tetrafluoropropoxy)phenyl]-3-(2H,4H)-1,2,4-triazolone]
solubility [2]: 5 µg/mL

CCOC(=O)C(C)(C)Oc1ccc(Cl)cc1 [Clofibrate agent alone, clofibrate]
solubility [3]: 82 µg/mL

O=C(O)c1ccccc1Nc1cccc(C(F)(F)F)c1 [Flufenamic acid alone, flufenamic acid]
solubilities of flufenamic acid [4]: 0.074 mg/mL

COC1=CC(=O)C[C@@H](C)[C@]12Oc1c(Cl)c(OC)cc(OC)c1C2=O [Griseofulvin alone, griseofulvin]
solubility [5]: 23 µg/mL

COc1ccc2c(c1)c(CC(=O)O)c(C)n2C(=O)c1ccc(Cl)cc1 [Indomethacin alone, indomethacin]
solubility at 8 h [6]: 23 µg/mL

O=C1NC(=O)C(c2ccccc2)(c2ccccc2)N1 [Phenytoin alone, phenytoin]
solubility at 8 h [7]: 27 µg/mL

C[C@]12CC[C@H]3[C@@H](CCC4=CC(=O)CC[C@@]43C)[C@@H]1CC[C@@H]2O [Testosterone alone, testosterone]
solubility at 8 h [8]: 29 µg/mL | solubility at 8 h [9]: 29 µg/mL | solubility at 8 h [10]: 29 µg/mL

vitamin K2 [Vitamin K2 alone]
solubilities of vitamin K2 [11]: 0.0005 µg/mL
